Where “and” joins values, the source holds several entries; their conditions need not be identical. Identical values can stand only once. Like-named read-outs stand apart in the source and are kept apart here.
How the values were obtained:
GST-YTHDF2 = biological target: T1, GST-YTHDF2 (Homo sapiens, UniProt Q9Y5A9); assay: HTRF-based binding assay, competition with m6A-oligoRNA, DF2; details: for Single-dose residual signal at 100 µM, DF2 / % at 100 µM: 100 µM compound; for Single-dose residual signal at 100 µM, DF2: normalized; for IC50: dose-response, competitor m6A-oligoRNA, read-out: DF2 IC50 (HTRF assay); for LE (ligand efficiency, DF2): LE = -RT ln IC50/HAC from HTRF IC50; for Residual signal at 1 mM concentration: 1 mM compound, relative to control, average of two technical replicates, * = interference with the assay
T1 construct: made in house
T1 sequence (Q9Y5A9 1-579): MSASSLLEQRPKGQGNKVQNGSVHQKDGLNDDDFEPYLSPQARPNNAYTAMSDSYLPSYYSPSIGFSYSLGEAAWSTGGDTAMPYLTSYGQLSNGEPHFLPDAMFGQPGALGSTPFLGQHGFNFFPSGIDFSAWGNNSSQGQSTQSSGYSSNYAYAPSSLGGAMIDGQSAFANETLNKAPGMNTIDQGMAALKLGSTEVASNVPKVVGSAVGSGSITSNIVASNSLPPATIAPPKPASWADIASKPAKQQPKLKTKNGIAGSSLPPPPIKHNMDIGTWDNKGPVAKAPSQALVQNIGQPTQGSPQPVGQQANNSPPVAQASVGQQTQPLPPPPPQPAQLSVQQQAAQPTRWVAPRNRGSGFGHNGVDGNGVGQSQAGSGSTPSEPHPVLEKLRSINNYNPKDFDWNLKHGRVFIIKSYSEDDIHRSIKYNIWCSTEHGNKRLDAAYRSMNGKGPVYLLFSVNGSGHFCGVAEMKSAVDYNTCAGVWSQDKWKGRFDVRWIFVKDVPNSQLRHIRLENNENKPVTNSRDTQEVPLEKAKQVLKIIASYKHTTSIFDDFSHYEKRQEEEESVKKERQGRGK

GST-YTHDF1 = biological target: T2, GST-YTHDF1 (Homo sapiens, UniProt Q9BYJ9); assay: HTRF-based binding assay, DF1; details: HTRF, 100 µM compound, normalized
T2 construct: made in house
T2 sequence (Q9BYJ9 1-559): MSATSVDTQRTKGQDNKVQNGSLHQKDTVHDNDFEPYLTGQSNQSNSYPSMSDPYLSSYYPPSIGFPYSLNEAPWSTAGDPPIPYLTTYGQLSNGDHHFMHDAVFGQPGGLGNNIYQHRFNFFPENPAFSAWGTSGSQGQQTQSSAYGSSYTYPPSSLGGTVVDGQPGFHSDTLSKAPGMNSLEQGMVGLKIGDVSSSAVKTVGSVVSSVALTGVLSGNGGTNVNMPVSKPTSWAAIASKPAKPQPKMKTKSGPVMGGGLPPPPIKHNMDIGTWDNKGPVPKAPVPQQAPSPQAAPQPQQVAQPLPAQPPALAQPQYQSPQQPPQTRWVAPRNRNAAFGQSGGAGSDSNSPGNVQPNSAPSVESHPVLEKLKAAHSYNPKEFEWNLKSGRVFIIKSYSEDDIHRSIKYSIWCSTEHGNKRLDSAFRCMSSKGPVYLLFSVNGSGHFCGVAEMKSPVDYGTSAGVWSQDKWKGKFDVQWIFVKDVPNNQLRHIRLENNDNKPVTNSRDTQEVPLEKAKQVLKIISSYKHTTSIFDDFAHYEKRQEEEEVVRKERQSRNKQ
Description: (§1) The HTRF-based assay was employed to evaluate the selectivity of the series against other DF proteins.
(§2) A dose–response experiment on DF1 and DF3 was conducted for compounds 17, 18, 23, and 27 (Figure S5). Compounds 17, 18, and 27 are active on three DF proteins. […] In contrast, compound 23 is selective for DF2, with residual signals (at the highest employed concentration of 62.5 μM) of 51 and 87% for DF1 and DF3, respectively.
(§3) GST-YTHDC1, GST-YTHDF1, GST-YTHDF2, and GST-YTHDF3 were purified as previously reported. The HTRF assay was assembled as detailed in ref with the only difference being that the starting concentration of the dose–response experiments used for the IC50 determination was variated dependently from the tested compound. The same protocol was applied to the four proteins. The competitive inhibition data of GST-YTHDF1 (single dose experiment at 100 μM compound concentration and dose–response curves), GST-YTHDF3 (single dose experiment at 100 μM compound concentration and dose–response curves), and GST-YTHDF2 (single dose experiment at 100 μM compound concentration) were normalized as described in ref to mitigate interference. The signal was measured as described in ref .

GST-YTHDF3 = biological target: T3, GST-YTHDF3 (Homo sapiens, UniProt Q7Z739); assay: HTRF-based binding assay, DF3; details: HTRF, 100 µM compound, normalized
T3 construct: made in house
T3 sequence (Q7Z739 1-585): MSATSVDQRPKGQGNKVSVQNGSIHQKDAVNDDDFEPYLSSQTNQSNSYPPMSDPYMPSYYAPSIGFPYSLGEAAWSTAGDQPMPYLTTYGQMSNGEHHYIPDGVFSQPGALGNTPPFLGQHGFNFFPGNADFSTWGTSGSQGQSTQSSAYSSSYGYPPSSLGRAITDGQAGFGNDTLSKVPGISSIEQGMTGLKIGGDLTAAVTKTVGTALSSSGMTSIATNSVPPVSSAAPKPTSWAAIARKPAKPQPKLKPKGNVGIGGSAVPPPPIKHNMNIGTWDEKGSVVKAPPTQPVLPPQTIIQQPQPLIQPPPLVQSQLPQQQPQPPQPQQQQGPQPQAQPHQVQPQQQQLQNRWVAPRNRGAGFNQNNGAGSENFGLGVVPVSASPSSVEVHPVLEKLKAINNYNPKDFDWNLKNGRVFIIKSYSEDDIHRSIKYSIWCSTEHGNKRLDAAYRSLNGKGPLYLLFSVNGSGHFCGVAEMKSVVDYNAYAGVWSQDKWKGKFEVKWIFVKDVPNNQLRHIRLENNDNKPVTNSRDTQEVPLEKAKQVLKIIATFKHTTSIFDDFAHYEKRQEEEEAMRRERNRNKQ
Description: as §1, §2, §3

YTHDC2 = biological target: T4, YTHDC2 (Homo sapiens, UniProt Q9H6S0); assay: DNA-fluorescence polarization (FP) competition assay, DC2; format: binding; details: for Kd: Cheng-Prusoff from FP IC50, probe Kd 7 nM, two biological replicates
T4 construct: YTH domain of YTHDC2 (residues 1285–1424, cloned into the pGEX-6P-1 vector); made in house; host or cells: Rosetta (DE3) cells (E. coli)
T4 sequence (Q9H6S0 1285-1424): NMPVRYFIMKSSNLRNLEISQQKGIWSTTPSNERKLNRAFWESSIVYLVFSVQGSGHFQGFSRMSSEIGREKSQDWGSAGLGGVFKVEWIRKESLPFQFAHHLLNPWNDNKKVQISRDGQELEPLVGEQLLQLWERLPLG
Description: (§4) The binding affinity for DC1 could not be evaluated by HTRF because of interference of the compounds with the assay, which has a smaller assay window when performed with DC1 compared to the DF proteins. Thus, the FP assay was used to evaluate binding to DC1 and DC2.
The N-terminally GST-tagged YTH domain of YTHDC2 (residues 1285–1424, cloned into the pGEX-6P-1 vector) was overexpressed in Rosetta (DE3) cells grown overnight at 20 °C following induction with 0.4 mM isopropyl-β-D-thiogalactopyranoside (IPTG) at an OD600 of 0.8. The cells were harvested and resuspended in a lysis buffer containing 100 mM Tris–HCl (pH 8.0) and 500 mM NaCl. After cell lysis, the lysate was clarified by centrifugation at 48,000g for 1 h, and the soluble proteins were loaded onto a column packed with Glutathione Sepharose 4B (GE Healthcare), then eluted with 20 mM reduced glutathione in lysis buffer. Finally, a size-exclusion chromatography step (HiLoad 16/600 Superdex 200 pg column, GE Healthcare) was performed to further purify the protein in 20 mM Tris–HCl (pH 7.4) and 150 mM NaCl.
(§5) For fluorescence polarization (FP) experiments, a 5′-fluorescein-labeled m^6A-DNA probe (5′-FAM-[…](m6A)-CTAAGCT-3′) was synthesized by Microsynth AG.
(§6) The final concentration of the fluorescein-labeled DNA was kept constant at 3 nM. For YTHDC2 measurements, the protein concentration was set to 25 nM, while for YTHDF2 measurements, it was set to 10 nM, and for YTHDC1, it was set at 15 nM. The compound concentration was serially diluted to obtain the dose–response curve. The competition experiments were conducted in a final volume of 20 μL in a buffer containing 20 mM Tris–HCl (pH 7.4), 150 mM NaCl, and 0.01% bovine serum albumin (BSA), using a 384-well black flat-bottomed microplate (Corning 3575).
(§7) After incubating the mixture for 1 h, the anisotropy values were measured using a Tecan SPARK plate reader with 485/20 nm excitation and 535/25 nm emission polarization filters, suitable for fluorescein, at 25 °C. To obtain the equilibrium dissociation constant (K d), the IC50 values were first derived by fitting a dose–response curve to the data using nonlinear regression analysis in GraphPad Prism. These IC50 values were then converted to K d by using the Cheng–Prusoff equation: Kd=IC50/1+[L]/Kdprobe
(§8) IC50 is the observed value from FP assay, [L] is the probe concentration used, and K d ^probe is the binding affinity of probe for the target.

YTHDF2 = biological target: T5, YTHDF2 (Homo sapiens, UniProt Q9Y5A9); assay: DNA-fluorescence polarization (FP) competition assay, DF2; format: binding
T5 sequence (Q9Y5A9 1-579): T1 sequence (Q9Y5A9 1-579)
Description: An FP competition assay was used to further validate the binding of the compounds to DF2. The main difference with respect to a previously published FP assay is the use of an oligo-DNA as competitor ligand (see Materials and Methods section). […] These differences might originate from the varying conditions in the two assays, such as the competitor mRNA (5′-biotin-[…](m6A)-CUAAGCU-3′) in HTRF and DNA (5′-FAM-[…](m6A)-CTAAGCT-3′) in FP, the salt concentration (150 mM NaCl and 100 mM KF in HTRF, and 150 mM NaCl in FP), and the pH (7.5 in HTRF and 7.4 in FP). The FP-based assay was also employed to assess the selectivity against DC1 and DC2 (see Selectivity section).
as §5, §6, §7, §8

YTHDC1 = YTHDC1 (Homo sapiens, UniProt Q96MU7); assay: DNA-fluorescence polarization (FP) competition assay, DC1; format: binding
Description: as §4, §5, §6, §7, §8

[1] = Cheng-Prusoff from FP IC50, probe Kd 5 nM, two biological replicates

Compound	IC50 (GST-YTHDF2) [µM]	Kd (YTHDC2)	% at 100 µM (GST-YTHDF2; HTRF) [%]	Residual signal at 1 mM concentration (GST-YTHDF2; HTRF) [%]	also measured
Cc1c(C(C)O)sc2[nH]c(=S)[nH]c(=O)c12 (racemic) [Compound S79]	27	> 1000 µM			Single-dose residual signal at 100 µM, DF2 (GST-YTHDF2; HTRF): 9%; Single-dose residual signal at 100 µM, DF1 (GST-YTHDF1): 31%; Single-dose residual signal at 100 µM, DF3 (GST-YTHDF3): 30%
COc1ccc(-c2cc3c(=O)[nH]c(=S)[nH]c3s2)cc1 [Compound 28]	22	9.1 µM			LE (ligand efficiency, DF2) (GST-YTHDF2): 0.34 kcal/(mol HAC); Kd (YTHDF2): 1.9 µM; Kd (YTHDC1): 9.4 µM
CCOC(=O)c1ccc(-c2cc3c(=O)[nH]c(=S)[nH]c3s2)cc1 [Compound 29]	21	8.4 µM			LE (ligand efficiency, DF2) (GST-YTHDF2): 0.29 kcal/(mol HAC); Kd (YTHDF2): 3.1 µM; Selectivity DF2 over DC2 (Kd ratio DC2/DF2) (YTHDC2; FP Kd values): 2–4 fold; Kd (YTHDC1): 5 µM; Selectivity DF2 over DC1 (Kd ratio DC1/DF2) (YTHDC1; FP Kd values): 2–4 fold
O=C(O)c1ccc(-c2cc3c(=O)[nH]c(=S)[nH]c3s2)cc1 [Compound 30]		5 µM and 4.9 µM			Kd (YTHDF2): 1.9 µM; Kd (YTHDC1): 7.5 µM
O=c1[nH]c(=S)[nH]c2[nH]ccc12 [Compound S63]			49	28	
O=c1[nH]c(=S)[nH]c2ccsc12 [Compound S64]			36		
CCc1cc2c(=O)[nH]c(SC)nc2s1 [Compound S65]			68		
Cc1cc2c(=O)n(C3CC3)c(=S)[nH]c2s1 [Compound S66]			25	23	
Nn1c(=S)[nH]c2sccc2c1=O [Compound S67]			40	23	
Nn1c(=S)[nH]c2scc(-c3ccccc3)c2c1=O [Compound S68]			32	36	
CCN1CCc2c(sc3[nH]c(=S)n(N)c(=O)c23)C1 [Compound S69]	23				
O=c1[nH]c(=S)[nH]c2scc(-c3cccs3)c12 [Compound S70]			45	49	
COc1cccc2c1OCc1sc3[nH]c(=S)[nH]c(=O)c3c1-2 [Compound S73]			22	64	
O=c1[nH]c(=S)[nH]c2scc(-c3ccccc3)c12 [Compound S74]	94	> 1000 µM			
Cc1cc2c(=O)[nH]c(=S)[nH]c2s1 [Compound S78]	38	> 1000 µM			Single-dose residual signal at 100 µM, DF2 (GST-YTHDF2; HTRF): 8%; Single-dose residual signal at 100 µM, DF1 (GST-YTHDF1): 17%; Single-dose residual signal at 100 µM, DF3 (GST-YTHDF3): 22%
Cc1c(C(=O)O)sc2[nH]c(=S)[nH]c(=O)c12 [Compound S80]	32				Single-dose residual signal at 100 µM, DF2 (GST-YTHDF2; HTRF): 9%; Single-dose residual signal at 100 µM, DF1 (GST-YTHDF1): 15%; Single-dose residual signal at 100 µM, DF3 (GST-YTHDF3): 29%
Cc1c(C(=O)NCCCCO)sc2[nH]c(=S)[nH]c(=O)c12 [Compound S83]	25	> 1000 µM			Single-dose residual signal at 100 µM, DF2 (GST-YTHDF2; HTRF): 9%; Single-dose residual signal at 100 µM, DF1 (GST-YTHDF1): 17%; Single-dose residual signal at 100 µM, DF3 (GST-YTHDF3): 40%
CCOC(=O)c1ccc(Cc2cc3c(=O)[nH]c(=S)[nH]c3s2)cc1 [Compound S86]		210 µM			% at 125 μM (printed in IC50 column, IC50 could not be determined) (GST-YTHDF2; HTRF, 125 μM compound): 63%
O=C(O)c1ccc(Cc2cc3c(=O)[nH]c(=S)[nH]c3s2)cc1 [Compound S87]	29	100 µM			Kd (YTHDF2; [1]): 18 µM
Cc1csc2[nH]c(=S)[nH]c(=O)c12 [Compound S88]	28	120 µM			Kd (YTHDF2; [1]): 8.1 µM
